Experimental data: ChEMBL document CHEMBL5465560, “Selectivity Literature for EUbOPEN Chemogenomic Library” (2024)

Legend:
[1] = target: Ribosomal protein S6 kinase beta-1 (Homo sapiens, UniProt P23443); test: Selectivity interaction (KinomeScan (DiscoverX)) EUB0001049a RPS6KB1; settings: at 1 µM
[2] = system: Tyrosine-protein kinase ABL1 (Homo sapiens), P00519 [T315I]; test: (§1) Selectivity interaction (Millipore kinase profiler) EUB0000124b ABL1; settings: at 10 µM
[3] = target: Tyrosine-protein kinase ABL1 (Homo sapiens, UniProt P00519); test: as §1; settings: at 10 µM
[4] = target: T1, Lymphokine-activated killer T-cell-originated protein kinase (Homo sapiens) (UniProt Q96KB5); test: Selectivity interaction (Kinase panel (literature)) EUB0001199aCl PBK; settings: at 1 µM
T1 sequence (whole entry): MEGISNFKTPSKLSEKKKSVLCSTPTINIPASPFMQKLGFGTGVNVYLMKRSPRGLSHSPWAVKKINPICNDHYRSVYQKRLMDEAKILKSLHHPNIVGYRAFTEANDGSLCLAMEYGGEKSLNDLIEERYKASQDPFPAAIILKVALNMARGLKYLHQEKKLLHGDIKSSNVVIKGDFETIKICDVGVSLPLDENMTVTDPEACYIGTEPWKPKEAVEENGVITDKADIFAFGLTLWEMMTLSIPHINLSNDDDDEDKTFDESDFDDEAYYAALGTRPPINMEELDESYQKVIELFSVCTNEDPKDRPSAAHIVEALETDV

[5] = target: Calcium/calmodulin-dependent protein kinase type 1 (Homo sapiens) (UniProt Q14012); test: Selectivity interaction (Kinase panel (literature)) EUB0001199aCl CAMK1; settings: at 1 µM
Chain of Calcium/calmodulin-dependent protein kinase type 1 (Homo sapiens) (Q14012 whole entry, looked up): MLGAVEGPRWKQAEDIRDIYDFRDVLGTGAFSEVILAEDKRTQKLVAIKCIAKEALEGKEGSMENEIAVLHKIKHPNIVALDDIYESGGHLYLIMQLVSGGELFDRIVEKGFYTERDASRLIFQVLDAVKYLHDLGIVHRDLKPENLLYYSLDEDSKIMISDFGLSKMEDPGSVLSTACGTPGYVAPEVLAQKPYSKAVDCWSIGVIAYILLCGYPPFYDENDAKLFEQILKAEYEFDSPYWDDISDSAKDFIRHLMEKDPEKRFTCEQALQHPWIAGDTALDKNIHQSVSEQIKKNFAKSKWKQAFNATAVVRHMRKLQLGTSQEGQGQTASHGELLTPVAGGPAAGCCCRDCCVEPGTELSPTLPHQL

[6] = target: Serine/threonine-protein kinase 32C (Homo sapiens) (UniProt Q86UX6); test: Selectivity interaction (KinomeScan (DiscoverX)) EUB0000666a STK32C; settings: at 10 µM
Chain of Serine/threonine-protein kinase 32C (Homo sapiens) (Q86UX6 whole entry): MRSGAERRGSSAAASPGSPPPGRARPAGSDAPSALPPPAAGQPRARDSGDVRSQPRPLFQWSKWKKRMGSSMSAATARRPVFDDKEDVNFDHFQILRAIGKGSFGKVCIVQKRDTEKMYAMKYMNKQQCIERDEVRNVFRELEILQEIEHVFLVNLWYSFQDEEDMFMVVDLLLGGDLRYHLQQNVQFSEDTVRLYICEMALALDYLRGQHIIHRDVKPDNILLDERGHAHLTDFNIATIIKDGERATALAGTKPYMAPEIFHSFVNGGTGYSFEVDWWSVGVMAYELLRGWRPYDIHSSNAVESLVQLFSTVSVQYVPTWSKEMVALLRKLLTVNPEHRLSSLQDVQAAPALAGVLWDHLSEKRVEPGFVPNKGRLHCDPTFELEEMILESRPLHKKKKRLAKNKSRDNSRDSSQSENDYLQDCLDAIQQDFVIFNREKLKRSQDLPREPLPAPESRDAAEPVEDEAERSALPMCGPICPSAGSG

[7] = target: Mitogen-activated protein kinase kinase kinase 9 (Homo sapiens) (UniProt P80192); test: Selectivity interaction (Kinase panel (KiNativ target engagement assay in Jurkat cells)) EUB0001635a MAP3K9; type: cell-based; settings: Selectivity number of off-targets 0.0, Selectivity number of targets 233.0, Source Knowledge https://www.sciencedirect.com/science/article/pii/S2451945619300674?via%3Dihub, at 1 µM
Chain of Mitogen-activated protein kinase kinase kinase 9 (Homo sapiens) (P80192 whole entry, looked up): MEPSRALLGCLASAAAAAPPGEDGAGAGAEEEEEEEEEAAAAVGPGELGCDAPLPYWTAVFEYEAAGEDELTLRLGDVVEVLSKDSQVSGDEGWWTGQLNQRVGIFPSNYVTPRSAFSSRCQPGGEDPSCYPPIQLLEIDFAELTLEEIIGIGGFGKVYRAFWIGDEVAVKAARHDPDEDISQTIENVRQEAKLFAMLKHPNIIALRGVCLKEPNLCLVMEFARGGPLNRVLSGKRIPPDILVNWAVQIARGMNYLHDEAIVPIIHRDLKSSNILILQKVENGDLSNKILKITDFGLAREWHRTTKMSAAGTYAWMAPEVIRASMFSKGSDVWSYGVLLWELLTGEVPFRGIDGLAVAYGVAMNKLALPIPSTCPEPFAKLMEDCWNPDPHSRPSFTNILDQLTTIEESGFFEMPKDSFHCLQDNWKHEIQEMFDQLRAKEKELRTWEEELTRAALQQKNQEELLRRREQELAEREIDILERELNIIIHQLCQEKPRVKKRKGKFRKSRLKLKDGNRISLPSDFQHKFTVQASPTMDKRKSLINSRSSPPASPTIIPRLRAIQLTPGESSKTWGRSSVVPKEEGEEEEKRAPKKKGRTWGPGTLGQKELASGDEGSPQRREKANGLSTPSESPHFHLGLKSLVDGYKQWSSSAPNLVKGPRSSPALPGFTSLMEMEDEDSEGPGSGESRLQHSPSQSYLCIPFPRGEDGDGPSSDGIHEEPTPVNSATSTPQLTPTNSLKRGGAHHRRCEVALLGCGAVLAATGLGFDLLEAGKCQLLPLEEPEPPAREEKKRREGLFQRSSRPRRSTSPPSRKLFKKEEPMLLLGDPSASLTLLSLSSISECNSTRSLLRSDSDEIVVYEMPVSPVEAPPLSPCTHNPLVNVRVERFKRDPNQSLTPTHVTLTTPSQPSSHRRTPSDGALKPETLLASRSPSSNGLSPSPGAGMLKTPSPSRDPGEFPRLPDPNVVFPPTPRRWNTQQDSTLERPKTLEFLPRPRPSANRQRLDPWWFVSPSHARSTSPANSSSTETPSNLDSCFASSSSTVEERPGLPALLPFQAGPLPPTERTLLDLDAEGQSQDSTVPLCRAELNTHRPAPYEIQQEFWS

[8] = system: Fibroblast growth factor receptor 3 (Homo sapiens), P22607 [G697C]; test: (§2) Selectivity interaction (KinomeScan (DiscoverX)) EUB0000699a FGFR3; settings: at 10 µM
Chain of Fibroblast growth factor receptor 3 (Homo sapiens), P22607 [G697C] (P22607 whole entry G697C): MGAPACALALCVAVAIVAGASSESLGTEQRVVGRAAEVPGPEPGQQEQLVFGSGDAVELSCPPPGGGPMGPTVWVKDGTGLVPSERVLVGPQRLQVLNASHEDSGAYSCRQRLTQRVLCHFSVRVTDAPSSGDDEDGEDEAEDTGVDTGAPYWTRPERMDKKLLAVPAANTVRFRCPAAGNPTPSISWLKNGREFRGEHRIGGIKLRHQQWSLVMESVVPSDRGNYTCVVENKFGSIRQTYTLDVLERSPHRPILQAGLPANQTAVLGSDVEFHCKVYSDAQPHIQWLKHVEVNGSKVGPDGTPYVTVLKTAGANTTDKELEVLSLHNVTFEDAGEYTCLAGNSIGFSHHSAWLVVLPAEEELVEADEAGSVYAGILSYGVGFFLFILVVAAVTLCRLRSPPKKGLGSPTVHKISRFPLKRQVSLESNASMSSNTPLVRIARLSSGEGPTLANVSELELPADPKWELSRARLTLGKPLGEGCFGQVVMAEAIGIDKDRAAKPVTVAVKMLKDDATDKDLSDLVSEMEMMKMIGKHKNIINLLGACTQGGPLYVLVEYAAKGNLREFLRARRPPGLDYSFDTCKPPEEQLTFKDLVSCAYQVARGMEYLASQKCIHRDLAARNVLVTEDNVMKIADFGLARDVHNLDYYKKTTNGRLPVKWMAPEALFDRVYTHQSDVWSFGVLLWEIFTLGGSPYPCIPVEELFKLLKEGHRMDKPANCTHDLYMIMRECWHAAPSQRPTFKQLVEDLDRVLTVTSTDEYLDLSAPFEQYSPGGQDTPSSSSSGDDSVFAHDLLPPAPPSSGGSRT

[9] = target: Fibroblast growth factor receptor 3 (Homo sapiens, UniProt P22607); test: as §2; settings: at 10 µM
[10] = target: Casein kinase II subunit alpha (Homo sapiens, UniProt P68400); test: Selectivity interaction (Kinase panel (DSF assay)) EUB0001559a CSNK2A1
[11] = target: Vascular endothelial growth factor receptor 1 (Homo sapiens) (UniProt P17948); test: Selectivity interaction (KinomeScan (DiscoverX)) EUB0000045b FLT1
Chain of Vascular endothelial growth factor receptor 1 (Homo sapiens) (P17948 whole entry): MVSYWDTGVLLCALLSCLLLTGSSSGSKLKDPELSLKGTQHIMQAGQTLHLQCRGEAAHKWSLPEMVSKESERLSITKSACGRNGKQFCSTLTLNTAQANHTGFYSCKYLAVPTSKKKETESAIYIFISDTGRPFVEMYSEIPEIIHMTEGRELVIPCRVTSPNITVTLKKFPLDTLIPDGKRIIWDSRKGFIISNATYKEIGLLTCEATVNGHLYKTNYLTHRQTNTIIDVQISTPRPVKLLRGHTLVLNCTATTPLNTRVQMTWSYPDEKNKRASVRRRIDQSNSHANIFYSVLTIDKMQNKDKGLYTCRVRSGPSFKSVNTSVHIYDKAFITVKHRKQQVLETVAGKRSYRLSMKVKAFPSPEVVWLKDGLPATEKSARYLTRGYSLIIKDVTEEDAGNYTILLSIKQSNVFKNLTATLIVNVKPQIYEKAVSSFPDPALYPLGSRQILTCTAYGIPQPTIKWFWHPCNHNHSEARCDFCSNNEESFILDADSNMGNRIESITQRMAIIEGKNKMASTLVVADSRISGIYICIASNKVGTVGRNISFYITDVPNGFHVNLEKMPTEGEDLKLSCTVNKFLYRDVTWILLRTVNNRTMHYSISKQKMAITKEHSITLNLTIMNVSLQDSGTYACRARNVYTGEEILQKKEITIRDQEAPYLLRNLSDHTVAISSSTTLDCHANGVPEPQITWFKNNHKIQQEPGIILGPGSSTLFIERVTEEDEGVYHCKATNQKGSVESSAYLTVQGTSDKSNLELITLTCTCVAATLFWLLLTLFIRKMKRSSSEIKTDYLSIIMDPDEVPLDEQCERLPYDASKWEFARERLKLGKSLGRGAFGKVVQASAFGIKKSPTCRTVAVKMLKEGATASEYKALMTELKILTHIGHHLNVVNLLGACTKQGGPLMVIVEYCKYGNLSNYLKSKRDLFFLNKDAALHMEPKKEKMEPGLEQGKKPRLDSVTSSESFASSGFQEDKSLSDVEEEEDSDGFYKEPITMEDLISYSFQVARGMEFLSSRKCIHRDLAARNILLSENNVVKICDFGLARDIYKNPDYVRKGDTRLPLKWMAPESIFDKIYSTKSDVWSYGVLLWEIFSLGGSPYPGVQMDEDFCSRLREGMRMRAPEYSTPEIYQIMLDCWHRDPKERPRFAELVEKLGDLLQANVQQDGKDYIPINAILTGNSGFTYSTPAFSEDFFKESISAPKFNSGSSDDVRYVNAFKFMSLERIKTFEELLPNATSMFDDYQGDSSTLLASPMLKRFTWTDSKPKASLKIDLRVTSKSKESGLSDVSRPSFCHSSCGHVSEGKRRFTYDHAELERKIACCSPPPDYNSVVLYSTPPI

[12] = target: Serine/threonine-protein kinase Nek6 (Homo sapiens) (UniProt Q9HC98); test: Selectivity interaction (KinomeScan (DiscoverX)) EUB0000695a NEK6; settings: at 100 nM
Chain of Serine/threonine-protein kinase Nek6 (Homo sapiens) (Q9HC98 whole entry): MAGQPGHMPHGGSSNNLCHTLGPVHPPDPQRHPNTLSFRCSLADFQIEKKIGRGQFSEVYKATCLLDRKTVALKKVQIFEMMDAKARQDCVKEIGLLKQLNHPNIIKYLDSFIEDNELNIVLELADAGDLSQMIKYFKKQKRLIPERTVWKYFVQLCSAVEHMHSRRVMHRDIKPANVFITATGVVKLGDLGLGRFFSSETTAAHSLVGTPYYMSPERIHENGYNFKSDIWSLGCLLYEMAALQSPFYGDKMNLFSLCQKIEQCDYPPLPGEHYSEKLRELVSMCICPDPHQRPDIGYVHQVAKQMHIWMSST

[13] = target: T2, Serine/threonine-protein kinase TAO2 (Homo sapiens) (UniProt Q9UL54); test: Selectivity interaction (ProQinase) EUB0000171b TAOK2
T2 sequence (whole entry): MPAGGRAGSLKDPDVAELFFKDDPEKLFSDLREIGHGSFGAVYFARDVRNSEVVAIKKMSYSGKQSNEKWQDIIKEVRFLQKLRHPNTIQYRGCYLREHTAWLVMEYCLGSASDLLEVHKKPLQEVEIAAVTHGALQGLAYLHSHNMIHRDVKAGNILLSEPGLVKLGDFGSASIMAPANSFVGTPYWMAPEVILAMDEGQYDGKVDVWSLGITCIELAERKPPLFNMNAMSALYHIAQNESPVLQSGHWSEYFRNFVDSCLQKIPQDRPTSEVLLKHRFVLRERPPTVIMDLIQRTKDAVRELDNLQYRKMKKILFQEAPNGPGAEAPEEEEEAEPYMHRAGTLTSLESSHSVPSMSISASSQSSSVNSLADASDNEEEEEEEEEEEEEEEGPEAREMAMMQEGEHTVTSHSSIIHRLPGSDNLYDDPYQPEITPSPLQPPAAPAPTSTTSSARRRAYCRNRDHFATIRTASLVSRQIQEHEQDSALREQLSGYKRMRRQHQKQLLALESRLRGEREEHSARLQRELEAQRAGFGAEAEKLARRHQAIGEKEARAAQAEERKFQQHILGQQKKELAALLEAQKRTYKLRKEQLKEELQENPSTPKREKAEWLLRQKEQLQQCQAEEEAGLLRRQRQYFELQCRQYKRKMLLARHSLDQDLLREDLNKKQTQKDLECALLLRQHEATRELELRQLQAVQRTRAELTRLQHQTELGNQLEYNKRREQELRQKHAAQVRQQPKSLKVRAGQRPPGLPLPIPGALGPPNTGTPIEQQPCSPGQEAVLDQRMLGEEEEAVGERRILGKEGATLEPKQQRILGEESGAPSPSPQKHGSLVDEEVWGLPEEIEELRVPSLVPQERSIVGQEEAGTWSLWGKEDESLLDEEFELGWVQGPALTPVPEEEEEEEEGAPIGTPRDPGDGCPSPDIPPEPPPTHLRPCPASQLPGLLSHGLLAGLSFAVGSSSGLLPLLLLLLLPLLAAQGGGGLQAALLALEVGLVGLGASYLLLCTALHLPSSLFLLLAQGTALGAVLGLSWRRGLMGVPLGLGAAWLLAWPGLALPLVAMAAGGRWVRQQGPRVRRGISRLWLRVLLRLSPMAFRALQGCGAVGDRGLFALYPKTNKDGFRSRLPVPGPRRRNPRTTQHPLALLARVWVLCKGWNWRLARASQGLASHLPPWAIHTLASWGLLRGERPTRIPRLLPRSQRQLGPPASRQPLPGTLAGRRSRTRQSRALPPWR

Chain of Ribosomal protein S6 kinase beta-1 (P23443 whole entry, looked up): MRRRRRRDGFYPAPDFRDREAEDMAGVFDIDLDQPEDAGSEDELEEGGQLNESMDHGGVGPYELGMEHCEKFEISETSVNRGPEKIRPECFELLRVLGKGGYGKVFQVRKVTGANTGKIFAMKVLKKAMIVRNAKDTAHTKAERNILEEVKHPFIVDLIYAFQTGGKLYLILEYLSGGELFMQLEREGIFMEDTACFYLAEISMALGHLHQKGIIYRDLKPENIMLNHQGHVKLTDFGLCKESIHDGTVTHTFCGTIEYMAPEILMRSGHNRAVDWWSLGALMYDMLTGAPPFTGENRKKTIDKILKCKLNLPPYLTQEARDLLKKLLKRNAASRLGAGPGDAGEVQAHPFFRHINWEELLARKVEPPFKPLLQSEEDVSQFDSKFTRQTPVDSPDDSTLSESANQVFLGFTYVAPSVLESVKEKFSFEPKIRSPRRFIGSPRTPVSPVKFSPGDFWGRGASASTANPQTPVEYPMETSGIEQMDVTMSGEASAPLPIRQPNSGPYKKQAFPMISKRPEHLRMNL

COc1cc(Nc2nc(C)cc(-c3cnn4nc(OC)ccc34)n2)cc(C(F)(F)F)c1
% of control [1]: 87%

CC(=O)Nc1cccc(-n2c(=O)n(C3CC3)c(=O)c3c(Nc4ccc(I)cc4F)n(C)c(=O)c(C)c32)c1
% of control [2]: 112%
% of control [3]: 95%

CN1Cc2nccc(-c3cn(C)nc3-c3ccc(F)cc3)c2C1=O
% of inhibition [4]: -3%
% of inhibition [5]: -9%

O=C(NOC[C@H](O)CO)c1ccc(F)c(F)c1Nc1ccc(I)cc1F
% of control [6]: 100%

C=CC(=O)Nc1ccc(C(=O)Nc2[nH]nc3c2CN(C(=O)N[C@H](CN(C)C)c2ccccc2)C3(C)C)cc1
% of engagement [7]: 0.3%

CCN(CC)CCCCNc1ncc2cc(-c3cc(OC)cc(OC)c3)c(NC(=O)NC(C)(C)C)nc2n1
% of control [8]: 3.7%
% of control [9]: 0.1%

CN(C(=O)c1cnn2cccnc12)c1cc2c(cc1N1CCOCC1)C(=O)N(C[C@@H](F)C(C)(C)O)C2
dTM [10]: -0.4 K

C=CC(=O)Nc1cc(-n2c(=O)ccc3cnc4ccc(-c5ccc(NS(C)(=O)=O)cc5)cc4c32)ccc1C
% of control ([11]; at 1 µM): 100%
% of control ([11]; at 10 µM): 100%

Cc1cc(F)c(C(=O)Nc2cccc(-c3nncn3C(C)C)n2)cc1-n1cnc(C2CC2)c1
% of control [12]: 100%

C=CC(=O)Nc1cccc(C(=O)Nc2ccc(Nc3cc(-c4[nH]c(SC)nc4C)ccn3)cc2)c1
% of control ([13]; at 1 µM): 38%
% of control ([13]; at 5 µM): 16%
